# Data published in patent US5244905A, “N-substituted cycloalkyl and polycycloalkyl polyhydro-β-carboline-phenylalanine- and phenethylamine derivatives” (Warner-Lambert Company, priority 1991, dated 1993).
# Key:
# Central CCK Receptors = target: T1, Central CCK Receptors (Mus musculus, UniProt P56481); experiment: Binding to central CCK receptors ([3H]-pentagastrin displacement, mouse cerebral cortical membranes); design: species or system mouse (male CFLP); settings: tritiated pentagastrin 2 nM, number of assays (n) = 2
# T1 construct: from tissue; host or cells: cerebral cortex of male CFLP mice (washed membranes)
# T1 sequence (P56481 1-453): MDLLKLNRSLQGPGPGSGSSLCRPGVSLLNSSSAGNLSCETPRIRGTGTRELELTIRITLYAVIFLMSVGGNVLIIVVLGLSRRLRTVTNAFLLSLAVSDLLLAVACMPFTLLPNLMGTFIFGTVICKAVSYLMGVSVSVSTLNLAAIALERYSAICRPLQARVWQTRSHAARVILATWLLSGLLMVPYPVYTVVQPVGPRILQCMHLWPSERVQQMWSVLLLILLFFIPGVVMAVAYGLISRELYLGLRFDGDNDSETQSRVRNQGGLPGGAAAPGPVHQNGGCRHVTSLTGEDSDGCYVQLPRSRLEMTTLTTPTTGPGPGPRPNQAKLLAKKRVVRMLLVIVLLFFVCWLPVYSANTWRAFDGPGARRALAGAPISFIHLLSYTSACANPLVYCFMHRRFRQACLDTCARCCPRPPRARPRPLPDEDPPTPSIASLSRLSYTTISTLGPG
# Method: (§1) The biological activity of compounds of the present invention was evaluated employing an initial screening test which rapidly and accurately measured the binding of the tested compound to known CCK receptor sites. […] (See Hays et al, Neuropeptides 1:53-62, 1980; and Satuer et al, Science, 208:1155-1156, 1980.
# (§2) In this screening test, the cerebral cortices taken from male CFLP mice weighing between 30-40 g were dissected on ice, weighed, and homogenized in 10 volumes of 50 mM Tris-HCl buffer (pH 7.4 at 0°-4° C.). The resulting suspension was centrifuged, the supernate was discarded, and the pellet was washed by resuspension in Tris-HCl buffer followed by recentrifugation. The final pellet was resuspended in 20 volumes of […] Hepes buffer (pH 7.2 at 23° C.) containing 130 mM NaCl, […] KCl, […] MgCl2, […] EDTA, 5 mg/mL bovine albumin, and bacitracin (0.25 mg/mL).
# (§3) In saturation studies, cerebral cortical membranes were incubated at 23° C. for 120 minutes in a final volume of 500 μliter of Hepes incubation buffer (pH 7.2) together with 0.2-20 nM tritiated-pentagastrin (Amersham International, England).
# (§4) In the displacement experiments, membranes were incubated with a single concentration (2 nM) of ligand, together with increasing concentrations ([…]) of competitive test compound. In each case, the nonspecific binding was defined as that persisting in the presence of the unlabeled octapeptide CCK26-33 (10^-6 M).
# (§5) Following incubation, radioactivity bound to membranes was separated from that free in solution by rapid filtration through Whatman GF/B filters and washed three times with 4 mL of ice cold Tris-HCl buffer. Filters from samples incubated with tritiated-pentagastrin were placed in polyethylene vials with 4 mL of scintillation cocktail, and the radioactivity was estimated by liquid scintillation spectrometry (efficiency 47% to 52%).
# (§6) The specific binding to CCK receptor sites was defined as the total bound tritiated-pentagastrin minus the amount of tritiated-pentagastrin bound in the presence of 10^-6 octapeptide, CCK26-33.
# (§7) Saturation curves for specific tritiated-pentagastrin binding to mouse cortical membranes were analyzed by the methods of Scatchard (Ann. New York Acad. Sci. 51:660 672, 1949, and Hill (J. Physiol. 40:IV-VIII, 1910, to provide estimates for the maximum number of binding sites (Bmax) and the equilibrium dissociation constant ([…]).
# (§8) In displacement experiments, inhibition curves were analyzed by either logit-log plots or the iterative curve fitting computer program ALLFIT (DeLean, Munson and Redbard, 1978) to provide estimates of the IC50 and nH (apparent Hill coefficient) values). (IC50 values were defined as the concentration of test compound required to produce 50% inhibition of specific binding.)
# (§9) The inhibition constant (Ki) of the test compound was then calculated according to the Cheng-Prusoff equation: [formula] where [L] is the concentration of radiolabel and Ka is the equilibrium dissociation constant.
# The Ki values for several representative compounds of the present invention are present in Table II.
# CCK-B receptor = target: T2, CCK-B receptor (Mus musculus, UniProt P56481); experiment: Binding to the CCK-B receptor (Table III); design: species or system mouse (male CFLP)
# T2 construct: from tissue
# T2 sequence (P56481 1-453): T1 sequence (P56481 1-453)
# Method: as §1, §2, §3, §4, §5, §6, §7, §8, §9
# nucleus accumbens = experiment: Locomotor activity after intra-accumbens amphetamine; type: in vivo, rat (male Sprague Dawley (CD) Bradford); settings: bilateral injection 20 μg into nucleus accumbens
# Method: The compounds of the instant invention are useful as antipsychotic agents. Compounds are tested for their ability to reduce the effects of intra-accumbens amphetamine in the rat as described hereinafter.
# Male Sprague Dawley (CD) Bradford strain rats are used. The rats are housed in groups of five at a temperature of 21°±2° C. on a 12 hour light-dark cycle of lights-on between 07 hours 00 minutes and 20 hours 00 minutes. Rats are fed CRM diet (Labsure) and allowed water ad libitum.
# Rats are anesthetized with chloral hydrate (400 mg/kg SC) and placed in a Kopf stereotaxic frame. Chronically indwelling guide cannulae (constructedof stainless steel tubing 0.65 mm diameter held bilaterally in Parspex holders) are implanted using standard stereotaxic techniques to terminate 3.5 mm above the center of the nucleus accumbens (Ant. 0.4, Vert. 0.0, Lat. 1.6) or 5.0 mm above the central nucleus of the amygdala (Ant. 5.8, Vet. -1.8, Lat. ±4.5) (Atlas of De Groot, 1959). […]
# Behavioral experiments are conducted between 07 hours 30 minutes and 21 hours 30 minutes in a quiet room maintained at 22°±2° C. […] Interruptions of the light beam are recorded every 5 minutes. […]
# The abilities of the compounds of the invention to inhibit the hyperactivity caused by the injection of amphetamine into the nucleus accumbens of the rat is measured.
# [1] = system: aspirin-induced gastric damage; experiment: Aspirin-induced gastric damage; type: in vivo, rat; settings: 15 mg/kg PO, p <0.001 compared with controls
# Method: Aspirin-induced gastric damage is assessed in groups of 10 rats each. All animals are fasted for 24 hours before and throughout the experiment. Drug or vehicle is given 10 minutes before an oral dose of 1 mL of a 45-mg/mL suspension of aspirin in 0.5% carboxymethylcellulose (CMC). The animals are sacrificed 5 hours after aspirin administration and the stomachs removed and opened for examination. |Gastric damage is scored as follows: |1 Small hemorrhage |2 Large hemorrhage |3 Small ulcer |4 Large ulcer |5 Perforated ulcer
structure (smiles),measurement,setting,value
O=C(NCCc1ccccc1)C1Cc2c([nH]c3ccccc23)CN1C(=O)OC1C2CC3CC(C2)CC1C3 (racemic) [Example 17],Ki,Central CCK Receptors,990 nM
same,Ki,CCK-B receptor,990 nM
C[C@]1(C(=O)NCCc2ccccc2)Cc2c([nH]c3ccccc23)CN1C(=O)OC1C2CC3CC(C2)CC1C3 (stereo partly drawn) [Example 2],Ki,Central CCK Receptors,600 nM
same,Ki,CCK-B receptor,600 nM
C[C@]1(C(=O)N[C@H](CO)Cc2ccccc2)Cc2c([nH]c3ccccc23)CN1C(=O)OC1C2CC3CC(C2)CC1C3 (stereo partly drawn) [Example 5],Ki,Central CCK Receptors,730 nM
same,Ki,CCK-B receptor,730 nM
"C[C@@]1(C(=O)N[C@H](CO)Cc2ccccc2)Cc2c([nH]c3ccccc23)CN1C(=O)OC1C2CC3CC(C2)CC1C3 (stereo partly drawn) [Example 6, (S)-1,3,4,9-Tetrahydro-3-[[[1-(hydroxymethyl)-2-phenylethyl]amino]carbonyl]-3-methyl-2H-pyrido[3,4-b]indole-2-carboxylic acid,tricyclo[3.3.1.1^3,7]dec-2-yl ester ester]",Ki,Central CCK Receptors,1500 nM
same,Ki,CCK-B receptor,1500 nM
"CC1(C(=O)N[C@@H](CO)[C@@H](O)c2ccccc2)Cc2c([nH]c3ccccc23)CN1C(=O)OC1C2CC3CC(C2)CC1C3 (stereo partly drawn) [Example 7, 1,3,4,9-Tetrahydro-3-[[[1-(hydroxymethyl)-2-hydroxy-2-phenylethyl]amino]carbonyl]-3-methyl-2H-pyrido[3,4-b]-indole-2-carboxylic acid,tricyclo[3.3.1.1^3,7]dec-2-yl ester]",Ki,Central CCK Receptors,860 nM
same,Ki,CCK-B receptor,860 nM
"CC1(C(=O)NCC(NC(=O)CCC(=O)O)c2ccccc2)Cc2c([nH]c3ccccc23)CN1C(=O)OC1C2CC3CC(C2)CC1C3 (stereo not drawn) [Example 9, 3-[[[2-(3-Carboxy-1-oxopropyl)-amino]-2-phenylethyl]amino]carbonyl]-1,3,4,9-tetrahydro-3-methyl-2H-pyrido[3,4-b]indole-2-carboxylic acid, tricyclo[3.3.1.1^3,7]dec-2-yl ester, [R-(R*,R*)] and [R-(R*,S*)]-]",Ki,Central CCK Receptors,500 nM
same,Ki,CCK-B receptor,500 nM
CC1(C(=O)NCC(O)c2ccccc2)Cc2c([nH]c3ccccc23)CN1C(=O)OC1C2CC3CC(C2)CC1C3 (stereo not drawn) [Example 12],Ki,Central CCK Receptors,710 nM
same,Ki,CCK-B receptor,710 nM
CC1(C(=O)NCC(OC(=O)CCC(=O)O)c2ccccc2)Cc2c([nH]c3ccccc23)CN1C(=O)OC1C2CC3CC(C2)CC1C3 (stereo not drawn) [Example 13],Ki,Central CCK Receptors,1000 nM
same,Ki,CCK-B receptor,1000 nM
"CC(C)(C)OC(=O)N1Cc2[nH]c3ccccc3c2CC1C(=O)NC(Cc1ccccc1)C(=O)O (stereo not drawn) [Example 18, 3-[[1(I-Carboxy-2-phenethyl)amino]carbonyl]-1,3,4,9-tetrahydro-2H-pyrido[3,4-b]indole-2-carboxylic acid, 1,1-dimethylethyl ester]",Ki,Central CCK Receptors,6000 nM
same,Ki,CCK-B receptor,6000 nM
CC(N)Cc1ccccc1 (stereo not drawn) [amphetamine],locomotor activity,nucleus accumbens,increase in locomotor activity
CNC(=C[N+](=O)[O-])NCCSCc1ccc(CN(C)C)o1 [ranitidine],inhibition of ulcer formation,[1]; 10 minutes before aspirin,74%
same,ulcer score,"[1]; ±SD, saline control 12.1±6.85",3.2±2.35
